How the values were obtained:
bacteria = experiment: amount of bacteria (CFU/g) in fermenting mash treated with antimicrobial agents; assay type: cell-based; conditions: FIG. 5
Description: FIG. 5 is a bar graph showing the amount of bacteria present (in CFU/g) in fermenting mash treated with different antimicrobial agents (in ppm) at different times (in hours).
FIG. 5 is a bar graph showing the amount of bacteria present (in CFU/g) in fermenting mash treated with different levels of an antimicrobial agent (in ppm), either ClO2 or antibiotic, at different times (in hours).

yeast [1] = experiment: yeast viability in corn mash treated with ClO2 during propagation/conditioning; assay type: cell-based; conditions: yeast treated with ClO2 during propagation/conditioning phase; FIG. 4
Description: FIG. 4 is a bar graph of viability (% of yeast cells living out of the original number) over time (in hours) in the corn mash treated with 0, 10 and 50 ppm of ClO2.
Chlorine dioxide can also be added during propagation and/or conditioning. For example ClO2 can be added to the yeast slurry before SSF replacing the acid washing step. FIG. 4 is a bar graph of viability (% of yeast cells living out of the original number) over time (in hours) in the corn mash treated with 0, 10 and 500 ppm of ClO2. […] The yeast can tolerate a ClO2 environment and remain viable at high concentrations of ClO2. Competing bacteria, wild yeast, molds, etc. will succumb to the ClO2 leaving only highly viable yeast for fermentation without the additional stress of traditional acid washing. Chlorine dioxide dosages of less than about 50 mg/L may be applied directly to the yeast during propagation.

yeast [2] = experiment: ethanol production from corn mash treated with ClO2 prior to fermentation; assay type: cell-based; conditions: ClO2 dosages of between about 10 and about 75 mg/L applied to the mash prior to fermentation; FIG. 3
Description: FIG. 3 is a graph of time (in hours) versus ethanol produced (in grams) for mash treated with various concentrations of ClO2 prior to the fermentation process.
The ClO2 can also be added to the mash prior to the fermentation process, for example before the SSF stage. FIG. 3 is a graph of time (in hours) versus ethanol produced (in grams) for mash treated with various concentrations of ClO2 prior to the fermentation process.

yeast [3] = experiment: ethanol production in fermentation batches treated with ClO2 during fermentation; assay type: cell-based; conditions: ClO2 dosages of less than about 15 mg/L applied directly to the fermentation mixture; FIG. 2
Description: FIG. 2 is a graph of time (in hours) versus ethanol produced (in grams) for fermentation batches treated with various concentrations of ClO2 during fermentation.
As mentioned above, ClO2 can be added directly into the fermentation mixture. This can be done by adding the ClO2 in conjunction with the yeast and glucoamylase, for example during the SSF stage. FIG. 2 is a graph of time (in hours) versus ethanol produced (in grams) for fermentation batches treated with various concentrations of ClO2 during fermentation.

fermentation = conditions: background statement; cited from earlier work
Weisella confusa = conditions: background statement; cited from earlier work

[O][Cl+][O-] [ClO2, Chlorine dioxide]
microbial reduction versus untreated mash (bacteria; corn mash treated with ClO2, after 72 hours): greater microbial reduction than untreated mash | microbial reduction versus antibiotic-treated mash (bacteria; corn mash treated with greater than 10 ppm of ClO2, after 72 hours): greater microbial reduction than the corn mash treated with antibiotic | greater yeast viability than untreated yeast (yeast [1]): up to 80% | ethanol production versus control (yeast [2]): greater ethanol production than the control containing no ClO2 | reaction with glucoamylase (glucoamylase): does not exhibit a significant reaction with glucoamylase | ethanol production versus control (yeast [3]): greater ethanol production than the control containing no ClO2

Virginiamycin
concentration that suppresses fermentation (fermentation): over 2 mg/L | concentration required to inhibit growth (Weisella confusa): over 25 mg/L

[O-][Cl+]O [chlorite ion]
concentration that inhibits the glucoamylase enzyme (glucoamylase; 5% maltose solution, FIG. 6): ≥ 14 mg/L
